Values of other authors as cited in US20070231358A1, “INTRAVAGINAL TREATMENT OF VAGINAL INFECTIONS WITH METRONIDAZOLE COMPOSITIONS” (Tolmar, Inc., priority 2004, published 2007).
Like-named read-outs stand apart in the source and are kept apart here.

Legend:
bacterial vaginosis [1] = conditions: oral route; 400 to 500 mg twice daily for three to seven days or 2 grams single dose
bacterial vaginosis [2] = conditions: for Cured patients out of 19: four weeks after initiation; for Cure rate (%): four weeks after initiation of therapy
[3] = after a single oral dose of 2 grams
[4] = oral 400 mg morning and evening for seven days
[5] = vaginal insert 500 mg every evening for seven days

Cc1ncc([N+](=O)[O-])n1CCO [metronidazole, 1-(2-hydroxyethyl)-2-methyl-5-nitroimidazole]
Cure rates (bacterial vaginosis [1]): 80-90%
Side effects (bacterial vaginosis [2]; intravaginal use as the 500 mg insert): No side effects were reported
Cured patients out of 19 (bacterial vaginosis [2]; [4]): 14
Cure rate (%) (bacterial vaginosis [2]; [4]): 74%
Cured patients out of 19 (bacterial vaginosis [2]; [5]): 15
Cure rate (%) (bacterial vaginosis [2]; [5]): 79%
Lactate-producing microorganisms (Lactobacilli and aerobic Streptococci) after treatment (bacterial vaginosis [2]; vaginal versus oral treatment): found more frequently after vaginal than after oral treatment
Concentration of metronidazole in the vaginal fluid [3]: low concentration
